# ± gives the expanded uncertainty stated by the source.
# Tests used:
# [1] = 101.3 kPa, Liquid; for speed of sound: Frequency=3 MHz, Single path-length method; for mass density: Vibrating tube method
# [2] = xn = mol fraction of the nth substance listed; conditions: 101.3 kPa, Liquid, x1 = 1; for speed of sound: Frequency=3 MHz, Single path-length method; for mass density: Vibrating tube method
Structure (SMILES),speed of sound ([1]; 298.15 K),mass density ([1]; 298.15 K),speed of sound ([1]; 303.15 K),mass density ([1]; 303.15 K),speed of sound ([1]; 308.15 K),mass density ([1]; 308.15 K),speed of sound ([1]; 313.15 K),mass density ([1]; 313.15 K),speed of sound ([1]; 318.15 K),mass density ([1]; 318.15 K),speed of sound ([2]; 298.15 K),mass density ([2]; 298.15 K),speed of sound ([2]; 303.15 K),mass density ([2]; 303.15 K),speed of sound ([2]; 308.15 K),mass density ([2]; 308.15 K),speed of sound ([2]; 313.15 K),mass density ([2]; 313.15 K),speed of sound ([2]; 318.15 K),mass density ([2]; 318.15 K)
CCCOCCO [2-propoxyethanol],1301 ± 10 m/s,908 ± 2 kg/m3,1283 ± 10 m/s,903 ± 2 kg/m3,1266 ± 10 m/s,899 ± 2 kg/m3,1248 ± 10 m/s,895 ± 2 kg/m3,1231 ± 10 m/s,890 ± 2 kg/m3,,,,,,,,,,
CCOCCO [2-ethoxyethan-1-ol],1304 ± 10 m/s,926 ± 2 kg/m3,1287 ± 10 m/s,921 ± 2 kg/m3,1270 ± 10 m/s,917 ± 2 kg/m3,1252 ± 10 m/s,912 ± 2 kg/m3,1234 ± 10 m/s,907 ± 2 kg/m3,,,,,,,,,,

# Results, then the compound that gave them:
speed of sound ([1]; 298.15 K),mass density ([1]; 298.15 K),speed of sound ([1]; 303.15 K),mass density ([1]; 303.15 K),speed of sound ([1]; 308.15 K),mass density ([1]; 308.15 K),speed of sound ([1]; 313.15 K),mass density ([1]; 313.15 K),speed of sound ([1]; 318.15 K),mass density ([1]; 318.15 K),speed of sound ([2]; 298.15 K),mass density ([2]; 298.15 K),speed of sound ([2]; 303.15 K),mass density ([2]; 303.15 K),speed of sound ([2]; 308.15 K),mass density ([2]; 308.15 K),speed of sound ([2]; 313.15 K),mass density ([2]; 313.15 K),speed of sound ([2]; 318.15 K),mass density ([2]; 318.15 K),Structure (SMILES)
1436 ± 10 m/s,1383 ± 2 kg/m3,1425 ± 10 m/s,1379 ± 2 kg/m3,1413 ± 10 m/s,1374 ± 2 kg/m3,1402 ± 10 m/s,1370 ± 2 kg/m3,1391 ± 10 m/s,1366 ± 2 kg/m3,,,,,,,,,,,CCn1cc[n+](C)c1.O=S(=O)([O-])C(F)(F)F [1-ethyl-3-methylimidazolium trifluoromethanesulfonate]
,,,,,,,,,,1436 ± 10 m/s,1383 ± 2 kg/m3,1425 ± 10 m/s,1379 ± 2 kg/m3,1413 ± 10 m/s,1374 ± 2 kg/m3,1402 ± 10 m/s,1370 ± 2 kg/m3,1391 ± 10 m/s,1366 ± 2 kg/m3,CCn1cc[n+](C)c1.O=S(=O)([O-])C(F)(F)F [1-ethyl-3-methylimidazolium trifluoromethanesulfonate] + CCCOCCO
,,,,,,,,,,1436 ± 10 m/s,1383 ± 2 kg/m3,1425 ± 10 m/s,1379 ± 2 kg/m3,1413 ± 10 m/s,1374 ± 2 kg/m3,1402 ± 10 m/s,1370 ± 2 kg/m3,1391 ± 10 m/s,1366 ± 2 kg/m3,CCn1cc[n+](C)c1.O=S(=O)([O-])C(F)(F)F [1-ethyl-3-methylimidazolium trifluoromethanesulfonate] + CCOCCO

# — the NIST ThermoML archive (doi:10.1016/j.jct.2019.05.023)
